From US20240132536A1, “CRYSTAL FORM OF 3-HYDROXY-5-PREGNANE-20-ONE DERIVATIVE, AND PREPARATION METHOD THEREFOR AND USE THEREOF” (priority 2021, published 2024)
Like-named read-outs stand apart in the source and are kept apart here.

What was measured:
[1] = cited from earlier work
[2] = in vivo; cited from earlier work
[3] = Polymorph study: crystalline form A suspended and pulped in solvents, precipitate assayed by XRPD; assay type: physicochemical; conditions: for Crystalline form after suspension (XRPD): stirred 2 days at 40° C. in darkness
Description: (§1) XRPD (X-ray Powder Diffraction) Method 1: about 10 mg of a sample is uniformly laid on a single crystal silicon sample disc, and XRPD detection is performed using following parameters. Instrument model: X'Pert^3 X-ray diffractometer; target: Cu-Kα (40 mA, 45 kV); scanning range from 3° to 40° in the 2θ interval.
The solution was centrifuged to remove the precipitates, which were dried and assayed by XPRD as follows: […]

[4] = Mechanical stability of crystalline form A (XRPD after mechanical treatment); assay type: physicochemical
[5] = Accelerated stability test of crystalline form A (XRPD); assay type: physicochemical; conditions: open, 40° C., RH75%, 3 months (sampled at 1, 2, 3 months)
Description: as §1

[6] = assay type: physicochemical; conditions: for Purity by HPLC, high humidity (RH92.5%) / Purity by HPLC, high temperature (60° C.) / Purity by HPLC, light (4500 ± 500 Lux): hydrochloride

Row | Compound | Purity by HPLC, high humidity (RH92.5%) ([6]; day 0) | Purity by HPLC, high temperature (60° C.) ([6]; day 0) | Purity by HPLC, light (4500 ± 500 Lux) ([6]; day 0) | Purity by HPLC, high humidity (RH92.5%) ([6]; day 5) | Purity by HPLC, high temperature (60° C.) ([6]; day 5) | Purity by HPLC, light (4500 ± 500 Lux) ([6]; day 5) | Purity by HPLC, high humidity (RH92.5%) ([6]; day 10) | Purity by HPLC, high temperature (60° C.) ([6]; day 10) | Purity by HPLC, light (4500 ± 500 Lux) ([6]; day 10) | Purity by HPLC, high humidity (RH92.5%) ([6]; day 30) | Purity by HPLC, high temperature (60° C.) ([6]; day 30) | Purity by HPLC, light (4500 ± 500 Lux) ([6]; day 30) | other results
1 | CC(=O)[C@H]1CC[C@H]2[C@@H]3CC[C@H]4C[C@H](O)CC[C@]4(C)[C@H]3CC[C@]12C [allopregnanolone] |  |  |  |  |  |  |  |  |  |  |  |  | human plasma half-life period [1]: about 45 minutes; oral availability [2]: poor
2 | CC(=O)[C@H]1CC[C@H]2[C@@H]3CC[C@H]4C[C@H](OC(=O)[C@@H](NC(=O)CN)C(C)C)CC[C@]4(C)[C@H]3CC[C@]12C.Cl [crystalline form A, glycine-L-valine 3α-hydroxy-5α-pregnan-20-one ester hydrochloride] | 99.69% | 99.69% | 99.69% | 99.69% | 99.62% | 99.66% | 99.69% | 99.68% | 99.70% | 99.69% | 99.69% | 99.67% | Crystalline form after suspension (XRPD) ([3]; Acetone): Crystalline form A; Crystalline form after suspension (XRPD) ([3]; Ethanol): Crystalline form A; Crystalline form after suspension (XRPD) ([3]; Ethyl acetate): Crystalline form A; Crystalline form after suspension (XRPD) ([3]; Methanol): Crystalline form A; Crystalline form after suspension (XRPD) ([3]; Methyl tert-butyl ether): Crystalline form A; Crystalline form after suspension (XRPD) ([3]; Toluene): Crystalline form A; Crystalline form after suspension (XRPD) ([3]; n-Heptane): Crystalline form A; Stability in different solvent systems (conclusion) ([3]; seven solvents, 2 days at 40° C.): remains stable; Effect of grinding, mechanical pulverising and pressure on stability (conclusion) [4]: no effects; Crystalline form after mechanical treatment (XRPD) ([4]; Ground in an agate mortar for a few minutes): Crystalline form A; Crystalline form after mechanical treatment (XRPD) ([4]; pressed in a tablet press): Crystalline form A; Crystalline form after mechanical treatment (XRPD) ([4]; pulverised in a mechanical shredder for a few minutes): Crystalline form A; Change of crystalline form (XRPD) after accelerated stability test [5]: no change; Stability under high temperature, high humidity and light conditions (conclusion) ([6]; up to 30 days): stable
3 | CC(=O)[C@H]1CC[C@H]2[C@@H]3CC[C@H]4C[C@H](OC(=O)[C@@H](NC(=O)CN)C(C)C)CC[C@]4(C)[C@H]3CC[C@]12C.Cl [crystalline form B, glycine-L-valine 3α-hydroxy-5α-pregnan-20-one ester hydrochloride] | 99.59% | 99.59% | 99.59% | 99.58% | 99.57% | 99.55% | 99.55% | 99.54% | 99.53% | 99.56% | 99.52% | 99.52% | 
4 | CC(=O)[C@H]1CC[C@H]2[C@@H]3CC[C@H]4C[C@H](OC(=O)[C@@H](NC(=O)CN)C(C)C)CC[C@]4(C)[C@H]3CC[C@]12C.Cl [crystalline form C, glycine-L-valine 3α-hydroxy-5α-pregnan-20-one ester hydrochloride] | 99.62% | 99.62% | 99.62% | 99.58% | 99.61% | 99.60% | 99.56% | 99.59% | 99.59% | 99.53% | 99.60% | 99.57% | 
